Experimental data as given in PubChem BioAssay AID248 (DTP/NCI, 2004).
Where “and” joins values, the source holds several entries; their conditions need not be identical. Equal entries are not always repeated. Inconclusive results and toxic doses are left out.

Test system: L1210 leukemia ip in BDF1 mice, survival T/C
Test: NCI In Vivo Anticancer Drug Screen. Data for tumor model L1210 Leukemia (intraperitoneal) in B6D2F1 (BDF1) mice
Conditions: endpoint: mean survival time, higher = longer survival
Summary of the method: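 Value reflects the ratio of survival in compound-treated mice to survival in vehicle-treated controls, with both groups carrying the same transplanted tumor.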

[1] = dose: 100.0 mg/kg/injection, schedule: Q01DX009 (ip), vehicle: saline with Tween-80
[2] = dose: 100.0 mg/kg/injection, schedule: Q04DX002 (ip), vehicle: saline with Tween-80
[3] = dose: 200.0 mg/kg/injection, schedule: Q04DX002 (ip), vehicle: saline with Tween-80
[4] = dose: 50.0 mg/kg/injection, schedule: Q01DX009 (ip), vehicle: saline
[5] = dose: 100.0 mg/kg/injection, schedule: Q01DX009 (ip), vehicle: saline
[6] = dose: 200.0 mg/kg/injection, schedule: Q01DX009 (ip), vehicle: saline
[7] = dose: 100.0 mg/kg/injection, schedule: Q04DX003 (ip), vehicle: Klucel (hydroxypropylcellulose) (HPC)
[8] = dose: 200.0 mg/kg/injection, schedule: Q04DX003 (ip), vehicle: Klucel (hydroxypropylcellulose) (HPC)
[9] = dose: 400.0 mg/kg/injection, schedule: Q04DX003 (ip), vehicle: Klucel (hydroxypropylcellulose) (HPC)
[10] = dose: 50.0 mg/kg/injection, schedule: Q01DX009 (ip), vehicle: Klucel (hydroxypropylcellulose) (HPC)
[11] = dose: 100.0 mg/kg/injection, schedule: Q01DX009 (ip), vehicle: Klucel (hydroxypropylcellulose) (HPC)
[12] = dose: 200.0 mg/kg/injection, schedule: Q01DX009 (ip), vehicle: Klucel (hydroxypropylcellulose) (HPC)
[13] = dose: 400.0 mg/kg/injection, schedule: Q01DX009 (ip), vehicle: Klucel (hydroxypropylcellulose) (HPC)
[14] = dose: 100.0 mg/kg/injection, schedule: Q01DX001 (ip), vehicle: saline
[15] = dose: 200.0 mg/kg/injection, schedule: Q01DX001 (ip), vehicle: saline

Compound: O=C(Cc1ccccc1)Nc1ccc([N+](=O)[O-])cc1Cl
- T/C (dose: 25.0 mg/kg/injection, schedule: Q01DX009 (ip), vehicle: saline with Tween-80): 103 % of control
- T/C (dose: 50.0 mg/kg/injection, schedule: Q01DX009 (ip), vehicle: saline with Tween-80): 103 % of control
- T/C [1]: 94 % of control and 100 % of control
- T/C [2]: 104 % of control
- T/C (dose: 150.0 mg/kg/injection, schedule: Q01DX009 (ip), vehicle: saline with Tween-80): 92 % of control
- T/C [3]: 101 % of control
- T/C (dose: 225.0 mg/kg/injection, schedule: Q01DX009 (ip), vehicle: saline with Tween-80): 97 % of control
- T/C (dose: 335.0 mg/kg/injection, schedule: Q01DX009 (ip), vehicle: saline with Tween-80): 103 % of control
- T/C (dose: 400.0 mg/kg/injection, schedule: Q04DX002 (ip), vehicle: saline with Tween-80): 96 % of control

Compound: CNC1CCCCC1O (stereo unspecified)
- T/C [4]: 97 % of control
- T/C [5]: 91 % of control
- T/C [6]: 94 % of control

Compound: CC(C)CCNC(=O)NS(=O)(=O)c1ccc(Cl)cc1
- T/C (dose: 100.0 mg/kg/injection, schedule: Q04DX003 (ip), vehicle: saline with Tween-80): 107 % of control
- T/C (dose: 200.0 mg/kg/injection, schedule: Q04DX003 (ip), vehicle: saline with Tween-80): 97 % of control
- T/C (dose: 400.0 mg/kg/injection, schedule: Q04DX003 (ip), vehicle: saline with Tween-80): 100 % of control

Compound: O=C(CSc1cc(Cl)ccc1Cl)Nc1ccccc1
- T/C (dose: 100.0 mg/kg/injection, schedule: Q01DX001 (ip), vehicle: other): 95 % of control
- T/C (dose: 200.0 mg/kg/injection, schedule: Q01DX001 (ip), vehicle: other): 96 % of control
- T/C (dose: 400.0 mg/kg/injection, schedule: Q01DX001 (ip), vehicle: other): 96 % of control

Compound: CCCCCOc1ccc(Nc2c3ccccc3nc3ccccc23)cc1
- T/C (dose: 100.0 mg/kg/injection, schedule: Q01DX001 (ip), vehicle: Klucel (hydroxypropylcellulose) (HPC)): 102 % of control
- T/C (dose: 200.0 mg/kg/injection, schedule: Q01DX001 (ip), vehicle: Klucel (hydroxypropylcellulose) (HPC)): 111 % of control
- T/C (dose: 400.0 mg/kg/injection, schedule: Q01DX001 (ip), vehicle: Klucel (hydroxypropylcellulose) (HPC)): 107 % of control

Compound: CCCCc1cn(C(=O)CCCl)nn1
- T/C [2]: 100 % of control
- T/C [3]: 100 % of control

Compound: CN(N=O)C(=O)NCCc1ccc(OC(=O)N(C)N=O)cc1
- T/C (dose: 0.78 mg/kg/injection, schedule: Q01DX Z (ip), vehicle: carboxymethylcellulose (CMC)): 98 % of control
- T/C (dose: 1.56 mg/kg/injection, schedule: Q01DX Z (ip), vehicle: carboxymethylcellulose (CMC)): 110 % of control
- T/C (dose: 3.12 mg/kg/injection, schedule: Q01DX Z (ip), vehicle: carboxymethylcellulose (CMC)): 95 % of control
- T/C (dose: 6.25 mg/kg/injection, schedule: Q01DX Z (ip), vehicle: carboxymethylcellulose (CMC)): 113 % of control
- T/C (dose: 12.5 mg/kg/injection, schedule: Q01DX Z (ip), vehicle: carboxymethylcellulose (CMC)): 118 % of control
- T/C (dose: 25.0 mg/kg/injection, schedule: Q01DX Z (ip), vehicle: carboxymethylcellulose (CMC)): 124 % of control
- T/C (dose: 50.0 mg/kg/injection, schedule: Q01DX Z (ip), vehicle: carboxymethylcellulose (CMC)): 91 % of control

Compound: COc1nc(Cl)nc(Cl)c1Cl (tested in a mixture with another compound)
- T/C (dose: 50.0 mg/kg/injection, schedule: Q01DX009 (ip), vehicle: other): 87 % of control
- T/C (dose: 100.0 mg/kg/injection, schedule: Q01DX009 (ip), vehicle: other): 102 % of control

Compound: O=C(NCc1ccccc1)c1ccccc1
- T/C [7]: 97 % of control
- T/C [8]: 95 % of control
- T/C [9]: 100 % of control

Compound: O=C(O)CSc1ccc([N+](=O)[O-])cc1[N+](=O)[O-]
- T/C (dose: 100.0 mg/kg/injection, schedule: Q04DX002 (ip), vehicle: Klucel (hydroxypropylcellulose) (HPC)): 100 % of control
- T/C (dose: 200.0 mg/kg/injection, schedule: Q04DX002 (ip), vehicle: Klucel (hydroxypropylcellulose) (HPC)): 96 % of control
- T/C (dose: 400.0 mg/kg/injection, schedule: Q04DX002 (ip), vehicle: Klucel (hydroxypropylcellulose) (HPC)): 96 % of control

Compound: Cc1c2c(n(C)c1C(=O)N1CCOCC1)CCCC2=O
- T/C (dose: 100.0 mg/kg/injection, schedule: Q04DX003 (ip), vehicle: carboxymethylcellulose (CMC)): 101 % of control
- T/C (dose: 200.0 mg/kg/injection, schedule: Q04DX003 (ip), vehicle: carboxymethylcellulose (CMC)): 98 % of control
- T/C (dose: 400.0 mg/kg/injection, schedule: Q04DX003 (ip), vehicle: carboxymethylcellulose (CMC)): 98 % of control

Compound: COc1cc(Cl)ccc1NC(=O)Oc1ccccc1C(N)=O
- T/C (dose: 6.25 mg/kg/injection, schedule: Q01DX009 (ip), vehicle: Klucel (hydroxypropylcellulose) (HPC)): 102 % of control
- T/C (dose: 12.5 mg/kg/injection, schedule: Q01DX009 (ip), vehicle: Klucel (hydroxypropylcellulose) (HPC)): 91 % of control
- T/C (dose: 25.0 mg/kg/injection, schedule: Q01DX009 (ip), vehicle: Klucel (hydroxypropylcellulose) (HPC)): 97 % of control
- T/C [10]: 91 % of control
- T/C [11]: 100 % of control

Compound: C#CCCCCCCCCCC(=O)OC
- T/C [11]: 102 % of control
- T/C [7]: 103 % of control
- T/C [12]: 102 % of control
- T/C [8]: 95 % of control
- T/C [13]: 104 % of control
- T/C [9]: 98 % of control

Compound: O=C1CNc2ccccc2N1
- T/C [7]: 103 % of control
- T/C [8]: 92 % of control
- T/C [9]: 92 % of control

Compound: COc1cc(CC2c3cccc(Oc4ccc(C)cc4)c3CCN2C)ccc1Oc1ccc(C)cc1 (stereo unspecified)
- T/C (dose: 100.0 mg/kg/injection, schedule: Q04DX002 (ip), vehicle: other): 96 % of control
- T/C (dose: 200.0 mg/kg/injection, schedule: Q04DX002 (ip), vehicle: other): 100 % of control
- T/C (dose: 400.0 mg/kg/injection, schedule: Q04DX002 (ip), vehicle: other): 100 % of control

Compound: C[n+]1c2ccccc2cc2ccc(N=[N+]=[N-])cc21
- T/C (dose: 6.25 mg/kg/injection, schedule: Q01DX009 (ip), vehicle: saline): 101 % of control
- T/C (dose: 6.25 mg/kg/injection, schedule: Q04DX003 (ip), vehicle: saline): 101 % of control
- T/C (dose: 12.5 mg/kg/injection, schedule: Q01DX001 (ip), vehicle: saline): 97 % of control
- T/C (dose: 12.5 mg/kg/injection, schedule: Q01DX009 (ip), vehicle: saline): 98 % of control
- T/C (dose: 12.5 mg/kg/injection, schedule: Q04DX003 (ip), vehicle: saline): 100 % of control
- T/C (dose: 25.0 mg/kg/injection, schedule: Q01DX001 (ip), vehicle: saline): 97 % of control
- T/C (dose: 25.0 mg/kg/injection, schedule: Q01DX009 (ip), vehicle: saline): 98 % of control
- T/C (dose: 25.0 mg/kg/injection, schedule: Q04DX003 (ip), vehicle: saline): 111 % of control
- T/C (dose: 35.0 mg/kg/injection, schedule: Q01DX009 (ip), vehicle: saline): 104 % of control

Compound: COc1ccc(NC(=O)N2CCN(c3ccccc3)CC2)c(OC)c1
- T/C [11]: 102 % of control
- T/C [12]: 96 % of control
- T/C [13]: 96 % of control

Compound: CN(C)c1ccc(N(C)C)nn1
- T/C [1]: 104 % of control

Compound: C[N+]1(C)CCNC(=O)CC1
- T/C (dose: 75.0 mg/kg/injection, schedule: Q01DX001 (ip), vehicle: saline): 105 % of control
- T/C (dose: 150.0 mg/kg/injection, schedule: Q01DX001 (ip), vehicle: saline): 94 % of control
- T/C (dose: 300.0 mg/kg/injection, schedule: Q01DX001 (ip), vehicle: saline): 105 % of control

Compound: CCCCOS(=O)(=O)c1ccc(N)cc1
- T/C [10]: 229 % of control
- T/C [11]: 90 % of control
- T/C [12]: 93 % of control

Compound: O=C(O)c1ccc(/C=N/NC(=O)c2cccc3ccccc23)cc1
- T/C [14]: 87 % of control
- T/C [15]: 87 % of control

Compound: CCCC[Si](Cl)(CCCC)CCCC
- T/C [4]: 90 % of control
- T/C [14]: 95 % of control
- T/C [5]: 92 % of control
- T/C [15]: 108 % of control
- T/C [6]: 90 % of control
- T/C (dose: 400.0 mg/kg/injection, schedule: Q01DX001 (ip), vehicle: saline): 90 % of control

Compound: CN(C)NC(=O)CC(N)C(=O)O (stereo unspecified)
- T/C [5]: 97 % of control
- T/C [6]: 114 % of control
- T/C (dose: 400.0 mg/kg/injection, schedule: Q01DX009 (ip), vehicle: saline): 100 % of control

Compound: CN(C)C(=O)NCc1ccccc1
- T/C [7]: 90 % of control
- T/C [8]: 92 % of control
- T/C [9]: 98 % of control
